One may read the IC50 as the concentration that gives 50% inhibition.

The assay deals with 11-beta-hydroxysteroid dehydrogenase 1 (Homo sapiens, UniProt P28845). Kind of assay: Inhibition of 11beta-HSD1 in human mixed sex human liver microsomes assessed as reduction in conversion of [3H]-cortisone to [3H]-cortisol pre-incubated for 15 mins before [3H]-cortisone addition in presence of NADPH by scintillation proximity assay. (Liver microsomes are vesicles of endoplasmic reticulum, rich in cytochrome P450 enzymes.)
Sequence of 11-beta-hydroxysteroid dehydrogenase 1 (P28845 whole entry): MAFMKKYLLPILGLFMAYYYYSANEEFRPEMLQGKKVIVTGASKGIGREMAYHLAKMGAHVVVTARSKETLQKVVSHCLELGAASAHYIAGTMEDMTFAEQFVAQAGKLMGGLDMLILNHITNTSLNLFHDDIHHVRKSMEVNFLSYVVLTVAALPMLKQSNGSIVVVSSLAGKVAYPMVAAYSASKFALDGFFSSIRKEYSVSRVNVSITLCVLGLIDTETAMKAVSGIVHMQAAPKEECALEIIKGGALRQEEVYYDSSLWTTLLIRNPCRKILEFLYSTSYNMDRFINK

With `O=C(NC1C2CC3CC(C2)CC1C3)C1CCCCC1` (stereo unspecified), the IC50 came out at 86 nM.

The record behind these values is ChEMBL document CHEMBL3616375, “Novel 11β-HSD1 inhibitors: C-1 versus C-2 substitution and effect of the introduction of an oxygen atom in the adamantane scaffold” (Bioorg Med Chem Lett, 2015).
